In the NIST ThermoML archive (doi:10.1021/je049874h):
± gives the expanded uncertainty stated by the source.

Settings: Liquid

Structure (SMILES)	vapor or sublimation pressure (263.15 K) [kPa]	vapor or sublimation pressure (278.15 K) [kPa]	vapor or sublimation pressure (293.15 K) [kPa]
CCCC [butane]	69.6 ± 2	125.1 ± 2	209.4 ± 2.1
FCF [difluoromethane]	580.2 ± 2.8	949.6 ± 3.6	1473.2 ± 4.8
